Assay [1] addresses T1, p38α (Homo sapiens, UniProt Q16539).
T1 construct: purchased Calbiochem 559324; host or cells: E. coli
The experiment in a line: p38 Kinase Assay (ATF-2 phosphorylation ELISA). Type of assay: biochemical. The settings on record: 2 h pre-incubation, ATP 250 μM, 1% DMSO; read-out: p38α inhibition (IC50 values). The method, then: Human recombinant p38 enzyme expressed in E. coli and activated by incubation with MKK6 enzyme (Calbiochem #559324) is used as source of enzyme activity.
The assay is carried in high binding, clear, flat bottom 96 well assay plates which have been coated with recombinant ATF-2 (Biosource #PHF0043). Test compounds are incubated with p38 kinase for 2 h prior to initiating the kinase assay by the addition of ATP to obtain an assay concentration of 250 μM. Phosphorylation of ATF-2 is detected and quantified using an ELISA. This consists of sequential incubation in the presence of anti-phospho-ATF2, biotinylated anti-IgG and streptavidin-HRP. Incubation with an HRP chromogenic substrate (TMB) results in absorbance that is proportional to the amount of phosphorylated substrate produced. Absorbance is detected using a multiwell plate reader.
Compounds are diluted in DMSO prior to addition to assay buffer, the final DMSO concentration in the assay being 1%.
The IC50 is defined as the concentration at which a given compound achieves 50% inhibition of control.

Assay [2] concerns TNFα release from LPS activated THP-1 cells or PBMC's. Briefly: p38 Functional Assay (TNFα release after LPS). Type of assay: cell-based. The following applies: Homo sapiens, 1 h pre-treatment, 0.3% DMSO, read-out: EC50 (inhibition of TNFα release). The protocol: Inhibition of cellular p38 depresses the release of TNFα, a functional response which is quantified by measurement of the amount of TNFα in the supernatants of LPS activated THP-1 cells (an immortalised monocytic cell line) or peripheral blood mononuclear cells (PBMC's) isolated from freshly drawn human blood.
Cells seeded in 96 well plates are pre-treated by the addition of p38 inhibitors for 1 h followed by addition of lipopolysaccharide (LPS) to activate cytokine production and release. The amount of TNFα released into the cell supernatants is quantified using an R&D Systems enzyme linked immunosorbant assay (ELISA) kit (product DY210) following the manufacturers instructions.
Compounds are diluted in DMSO prior to addition, the final DMSO concentration in the assay being 0.3%. The EC50 is defined as the concentration at which a given compound achieves 50% inhibition of the control.

T1 sequence (Q16539 whole entry): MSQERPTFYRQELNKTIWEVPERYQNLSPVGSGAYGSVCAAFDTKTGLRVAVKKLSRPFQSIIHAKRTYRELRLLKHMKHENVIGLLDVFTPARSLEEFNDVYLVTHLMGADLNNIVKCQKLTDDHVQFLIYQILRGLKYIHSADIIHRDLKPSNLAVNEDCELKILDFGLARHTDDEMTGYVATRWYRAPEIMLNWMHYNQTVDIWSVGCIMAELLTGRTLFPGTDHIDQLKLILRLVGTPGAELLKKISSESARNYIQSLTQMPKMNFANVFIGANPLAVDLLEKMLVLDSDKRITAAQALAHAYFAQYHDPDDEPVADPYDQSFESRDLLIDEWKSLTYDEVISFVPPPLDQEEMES

One may read the IC50 as the concentration at which inhibition is half-maximal. As usually defined, the EC50 is the midpoint of the concentration-response curve. On to `O=C(NCC1CC1)c1cccc(Sc2ccc3nnc(-c4cccc(OCCN5CCOCC5)c4)n3c2)c1` [Example 1, N-Cyclopropylmethyl-3-{3-[3-(2-morpholin-4-yl-ethoxy)-phenyl]-[1,2,4]triazolo[4,3-a]pyridin-6-ylsulfanyl}-benzamide], for which the IC50 in assay [1] lay in the range of 500 to 2000 nM. In assay [2], the EC50 is 500 to 7000 nM. The matching figures for `O=C(Nc1cccc(N2CCOCC2)c1)c1cccc(Sc2ccc3nnc(-c4cccc(OCCN5CCOCC5)c4)n3c2)c1` [Example 2]: 100 to 500 nM and 100 to 500 nM. For the compound `O=C(Nc1ccnc(N2CCOCC2)c1)c1cccc(Sc2ccc3nnc(-c4cccc(OCCN5CCOCC5)c4)n3c2)c1` [Example 3], the IC50 in assay [1] was 100 to 500 nM. The EC50 in assay [2] was 10 to 100 nM. For `Cc1ccc(-n2nc(C(C)(C)C)cc2NC(=O)Cc2ccc(Sc3ccc4nnc(C(C)C)n4c3)cc2)cc1` [Example 6], in that order: less than 10 nM and 10 to 100 nM. In the case of `Cc1ccc(-n2nc(C(C)(C)C)cc2NC(=O)Cc2ccc(Sc3ccc4nnc(-c5cccc(OCc6ccccc6)c5)n4c3)cc2)cc1` [Example 8], in assay [1], the IC50 was in the range of 10 to 100 nM. Besides, the EC50 in assay [2] lay within 100 to 500 nM.

On to `Cc1ccc(-n2nc(C(C)(C)C)cc2NC(=O)Nc2ccc(Sc3ccc4nnc(-c5cccc(OCc6ccccc6)c5)n4c3)cc2)cc1` [Example 11], for which the IC50 in assay [1] was in the range of 500 to 2000 nM. In addition, in assay [2], the EC50 was in the range of 100 to 500 nM. In the case of `Cc1ccc(-n2nc(C(C)(C)C)cc2NC(=O)Nc2ccc(Sc3ccc4nnc(-c5cccc(OCCN6CCOCC6)c5)n4c3)nc2)cc1` [Example 12, 1-(5-tert-Butyl-2-p-tolyl-2H-pyrazol-3-yl)-3-(6-{3-[3-(2-morpholin-4-yl-ethoxy)-phenyl]-[1,2,4]triazolo[4,3-a]pyridin-6-ylsulfanyl}-pyridin-3-yl)-urea], in assay [1], the IC50 was 10 to 100 nM. For the same compound, the EC50 in assay [2] lay within 10 to 100 nM. With `Cc1ccc(-n2nc(C(C)(C)C)cc2NC(=O)Nc2ccc(Sc3ccc4nnc(-c5cccc(OCCN6CCOCC6)c5)n4c3)cn2)cc1` [Example 13, 1-(5-tert-Butyl-2-p-tolyl-2H-pyrazol-3-yl)-3-(5-{3-[3-(2-morpholin-4-yl-ethoxy)-phenyl]-[1,2,4]triazolo[4,3-a]pyridin-6-ylsulfanyl}-pyridin-2-yl)-urea], in assay [1], the IC50 fell in the range of 100 to 500 nM. Moreover, the half-maximal effective concentration (EC50) in assay [2] is 10 to 100 nM. The matching figures for `Cc1ccc(-n2nc(C(C)(C)C)cc2NC(=O)N[C@H]2CC[C@H](Oc3ccc4nnc(-c5cccc(OCCN6CCOCC6)c5)n4c3)CC2)cc1` [Example 14, 1-(5-tert-Butyl-2-p-tolyl-2H-pyrazol-3-yl)-3-(trans-4-{3-[3-(2-morpholin-4-yl-ethoxy)-phenyl]-[1,2,4]triazolo[4,3-a]pyridin-6-yloxy}-cyclohexyl)-urea]: 10 to 100 nM and 10 to 100 nM. For the compound `Cc1ccc(-n2nc(C(C)(C)C)cc2NC(=O)N[C@H]2CC[C@@H](Oc3ccc4nnc(-c5cccc(OCCN6CCOCC6)c5)n4c3)CC2)cc1` [Example 15], in assay [1], the IC50 was 100 to 500 nM. Besides, the EC50 in assay [2] fell in the range of 500 to 7000 nM.

In the case of `CC(C)(C)c1cc(NC(=O)N[C@H]2CC[C@H](Oc3ccc4nnc(-c5cccc(OCCN6CCOCC6)c5)n4c3)CC2)n(-c2ccccc2)n1` [Example 16], the IC50 in assay [1] lay within 10 to 100 nM. Also, in assay [2], the EC50 was in the range of 500 to 7000 nM. The matching figures for `Cc1ccc(-n2nc(C(C)(C)C)cc2NC(=O)CN2CCC(Oc3ccc4nnc(-c5cccc(OCCN6CCOCC6)c5)n4c3)CC2)cc1` [Example 17, N-(5-tert-Butyl-2-p-tolyl-2H-pyrazol-3-yl)-2-(4-{3-[3-(2-morpholin-4-yl-ethoxy)-phenyl]-[1,2,4]triazolo[4,3-a]pyridin-6-yloxy}-piperidin-1-yl)-acetamide]: 500 to 2000 nM and 500 to 7000 nM. For `Cc1ccc(-n2nc(C(C)(C)C)cc2NC(=O)Cc2ccc(Sc3ccc4nnc(-c5cccc(O)c5)n4c3)cc2)cc1` [Example 18, N-(5-tert-Butyl-2-p-tolyl-2H-pyrazol-3-yl)-2-{4-[3-(3-hydroxy-phenyl)-[1,2,4]triazolo[4,3-a]pyridin-6-ylsulfanyl]-phenyl}-acetamide], in assay [1], the IC50 was less than 10 nM. Moreover, in assay [2], the EC50 fell in the range of 10 to 100 nM. The matching figures for `CC(C)c1nnc2ccc(Sc3ccc(CC(=O)Nc4cc(C(C)(C)C)nn4-c4ccc(OCCN5CCOCC5)cc4)cc3)cn12` [Example 19, N-{5-tert-Butyl-2-[4-(2-morpholin-4-yl-ethoxy)-phenyl]-2H-pyrazol-3-yl}-2-[4-(3-isopropyl-[1,2,4]triazolo[4,3-a]pyridin-6-ylsulfanyl)-phenyl]-acetamide]: 500 to 2000 nM and 500 to 7000 nM. Regarding `CC(C)c1nnc2ccc(Sc3ccc(CC(=O)Nc4cc(C(C)(C)C)nn4-c4ccc(O)cc4)cc3)cn12` [Example 20, N-[5-tert-Butyl-2-(4-hydroxy-phenyl)-2H-pyrazol-3-yl]-2-[4-(3-isopropyl-[1,2,4]triazolo[4,3-a]pyridin-6-ylsulfanyl)-phenyl]-acetamide], in assay [1], the IC50 is 10 to 100 nM. Also, in assay [2], the EC50 was 10 to 100 nM. Consider `Cc1ccc(-n2nc(C(C)(C)C)cc2NC(=O)N[C@H]2CC[C@H](Oc3ccc4nnc(C(C)C)n4c3)CC2)cc1` [Example 21, 1-(5-tert-Butyl-2-p-tolyl-2H-pyrazol-3-yl)-3-[4-(3-isopropyl-[1,2,4]triazolo[4,3-a]pyridin-6-yloxy)-cyclohexyl]-urea], for which the IC50 in assay [1] lay within 10 to 100 nM. Further, the EC50 in assay [2] was 10 to 100 nM.

For `Cc1ccc(-n2nc(C(C)(C)C)cc2NC(=O)C[C@H]2CC[C@H](Oc3ccc4nnc(C(C)C)n4c3)CC2)cc1` [Example 22, N-(5-tert-Butyl-2-p-tolyl-2H-pyrazol-3-yl)-2-[4-(3-isopropyl-[1,2,4]-triazolo[4,3-a]pyridin-6-yloxy)-cyclohexyl]-acetamide], the IC50 in assay [1] lay within 500 to 2000 nM. The EC50 in assay [2] was in the range of 500 to 7000 nM.

For the compound `Cc1ccc(-n2nc(C(C)(C)C)cc2NC(=O)Cc2ccc(Oc3ccc4nnc(C(C)C)n4c3)cc2)cc1` [Example 23, N-(5-tert-Butyl-2-p-tolyl-2H-pyrazol-3-yl)-2-[4-(3-isopropyl-[1,2,4]triazolo[4,3-a]pyridin-6-yloxy)-phenyl]-acetamide], the IC50 in assay [1] was less than 10 nM. The EC50 in assay [2] was less than 10 nM. For the compound `Cc1ccc(-n2nc(C(C)(C)C)cc2NC(=O)C(C)c2ccc(Sc3ccc4nnc(C(C)C)n4c3)cc2)cc1` (centres unmarked) [Example 24, N-(5-tert-Butyl-2-p-tolyl-2H-pyrazol-3-yl)-2-[4-(3-isopropyl-[1,2,4]triazolo[4,3-a]pyridin-6-ylsulfanyl)-phenyl]-propionamide], in assay [1], the IC50 was 100 to 500 nM. Still for that read-out and setting: then `Cc1ccc(-n2nc(C(C)(C)C)cc2NC(=O)N[C@H]2CC[C@H](Oc3ccc4nnc(C5CCCC5)n4c3)CC2)cc1` [Example 25, 1-(5-tert-Butyl-2-p-tolyl-2H-pyrazol-3-yl)-3-[4-(3-cyclopentyl-[1,2,4]triazolo[4,3-a]pyridin-6-yloxy)-cyclohexyl]-urea], with less than 10 nM; and `CC(C)c1nnc2ccc(Sc3ccc(CC(=O)Nc4cc(C(C)(C)C)nn4-c4cccc(OCCc5ccncc5)c4)cc3)cn12` [Example 27, N-{5-tert-Butyl-2-[3-(2-pyridin-4-yl-ethoxy)-phenyl]-2H-pyrazol-3-yl}-2-[4-(3-isopropyl-[1,2,4]triazolo[4,3-a]pyridin-6-ylsulfanyl)-phenyl]-acetamide], with 10 to 100 nM. Same read-out and setting: with `Cc1ccc(-n2nc(C(C)(C)C)cc2NC(=O)c2cccc(Sc3ccc4nnc(C(C)C)n4c3)c2)cc1` [Example 28] the figure was 10 to 100 nM. Same read-out and setting: then `Cc1ccc(-n2nc(C(C)(C)C)cc2NC(=O)NC2CCC(Oc3ccc4nnc(-c5ccccn5)n4c3)CC2)cc1` (centres unmarked) [Example 29, 1-(5-tert-Butyl-2-p-tolyl-2H-pyrazol-3-yl)-3-[4-(3-pyridin-2-yl-[1,2,4]triazolo[4,3-a]pyridin-6-yloxy)-cyclohexyl]-urea], with 10 to 100 nM.

Values taken from patent publication US8557797B2, “Triazolopyridine derivatives and their therapeutic use” (Chiesi Farmaceutici S.p.A., priority 2009, dated 2013).
